# Laboratory results as given in patent publication US12252475B2, “Crystal forms of immunomodulators” (Curis, Inc., priority 2017, dated 2025).
# Where two headings read alike, the source gives them in different places.
# How the values were obtained:
# Assay type in all cases: physicochemical
# [1] = Dynamic vapor sorption (DVS)
# [2] = Solution stability of Form A in water/organic solvent mixtures (HPLC purity); settings: for HPLC purity, API (RRT 1.00): about 10 mg/mL; for chemical purity in solution: time 0, across water/organic solvent mixtures
# Protocol: (§1) Purity analysis was performed on an Agilent HP1100 series system equipped with a diode array detector and using ChemStation software vB.04.03 using the method detailed below in Table 3.
# Samples of formula (I) anhydrous crystalline Form A were stored as solutions in water mixed with acetonitrile, tetrahydrofuran, isopropyl alcohol, or ethanol at room temperature and 35° C. for 7-8 days. The sample concentration was about 10 mg/mL and was kept stirring.
# [3] = Solid stability of anhydrous crystal Form A on storage (XRPD form, TGA, HPLC purity); settings: for HPLC Purity (area %): solid
# Protocol: as §1
# Thermogravimetric analysis (TGA) data were collected using a TA Q500/Q5000 TGA from TA Instruments. Differential scanning calorimetry (DSC) was performed using a TA Q200/Q2000 DSC from TA Instruments.
# About 40 mg of a sample of formula (I) Form A was kept at each corresponding condition for one month without significant changes. […] No significant effect of the shoulder peaks on form or HPLC purity was observed.
# Samples of formula (I) anhydrous crystalline Form A were stored as solids at 25° C./60% RH, 30° C./˜56%, and 40° C./75% RH for the time periods listed below. The samples were prepared in duplicate with an offset of 2 weeks. Each replicate was stored in a different container.
# [4] = Solubility in simulated gastric fluid and pH-adjusted water at room temperature; settings: thermodynamic from solid
# Description: The pH values of the aqueous solutions after the solubility test were 5.13 and 5.15, respectively.
# [5] = Equilibrium solubility in water; settings: for Final Form / solubility at 6 h: Water; for Final Form: solids checked by XRPD; for solubility at 6 h: thermodynamic from solid, equilibrated 6 hrs, HPLC
# Protocol: Equilibrium solubility of formula (I) anhydrous Form A was measured in the water at 20° C. and 30° C. All samples were equilibrated at temperature for 6 hrs, and the solubility of supernatant was measured by HPLC, while the solids were checked by XRPD. (See Table 10.)
# [6] = Seed (after ground), 5° C., sealed
smiles,measurement,setting,value
CC(O)[C@H](NC(=O)N[C@@H](CC(N)=O)c1nc([C@@H](N)CO)no1)C(=O)O (stereo in doubt) [Form A],hygroscopicity,"[1]; DVS, up to 80% RH",slightly hygroscopic
same,form change during DVS testing,"[1]; XRPD before and after DVS, FIG. 11",No form change was observed
same,mass change in DVS,[1]; up to 80% RH,about 0.66%
same,"HPLC purity, API (RRT 1.00)","[2]; 35° C., ACN/H2O (1:1, v/v), 0 h",99.58%
same,"HPLC purity, API (RRT 1.00)","[2]; 35° C., ACN/H2O (1:1, v/v), 4 h",99.44%
same,"HPLC purity, API (RRT 1.00)","[2]; 35° C., ACN/H2O (1:1, v/v), 24 h",98.42%
same,"HPLC purity, API (RRT 1.00)","[2]; 35° C., EtOH/H2O (1:1, v/v), 0 h",99.58%
same,"HPLC purity, API (RRT 1.00)","[2]; 35° C., EtOH/H2O (1:1, v/v), 4 h",99.47%
same,"HPLC purity, API (RRT 1.00)","[2]; 35° C., EtOH/H2O (1:1, v/v), 24 h",99.11%
same,"HPLC purity, API (RRT 1.00)","[2]; 35° C., IPA/H2O (1:2, v/v), 0 h",99.57%
same,"HPLC purity, API (RRT 1.00)","[2]; 35° C., IPA/H2O (1:2, v/v), 4 h",99.35%
same,"HPLC purity, API (RRT 1.00)","[2]; 35° C., IPA/H2O (1:2, v/v), 24 h",99.21%
same,"HPLC purity, API (RRT 1.00)","[2]; 35° C., THF/H2O (1:1, v/v), 0 h",99.56%
same,"HPLC purity, API (RRT 1.00)","[2]; 35° C., THF/H2O (1:1, v/v), 4 h",99.37%
same,"HPLC purity, API (RRT 1.00)","[2]; 35° C., THF/H2O (1:1, v/v), 24 h",98.30%
same,chemical purity in solution,[2]; 35° C.,about 99.6%
same,"HPLC purity, API (RRT 1.00)","[2]; RT, ACN/H2O (1:1, v/v), 0 h",99.65%
same,"HPLC purity, API (RRT 1.00)","[2]; RT, ACN/H2O (1:1, v/v), 4 h",99.51%
same,"HPLC purity, API (RRT 1.00)","[2]; RT, ACN/H2O (1:1, v/v), 24 h",99.24%
same,"HPLC purity, API (RRT 1.00)","[2]; RT, EtOH/H2O (1:1, v/v), 0 h",99.58%
same,"HPLC purity, API (RRT 1.00)","[2]; RT, EtOH/H2O (1:1, v/v), 4 h",99.47%
same,"HPLC purity, API (RRT 1.00)","[2]; RT, EtOH/H2O (1:1, v/v), 24 h",99.11%
same,"HPLC purity, API (RRT 1.00)","[2]; RT, IPA/H2O (1:2, v/v), 0 h",99.59%
same,"HPLC purity, API (RRT 1.00)","[2]; RT, IPA/H2O (1:2, v/v), 4 h",99.52%
same,"HPLC purity, API (RRT 1.00)","[2]; RT, IPA/H2O (1:2, v/v), 24 h",99.21%
same,"HPLC purity, API (RRT 1.00)","[2]; RT, THF/H2O (1:1, v/v), 0 h",99.64%
same,"HPLC purity, API (RRT 1.00)","[2]; RT, THF/H2O (1:1, v/v), 4 h",99.47%
same,"HPLC purity, API (RRT 1.00)","[2]; RT, THF/H2O (1:1, v/v), 24 h",99.19%
same,chemical purity in solution,[2]; room temperature,about 99.6%
same,Final Form,"[3]; 25° C., 60% RH, 1 month",Form A
same,TGA (%),"[3]; 25° C., 60% RH, 1 month",0.60%
same,Final Form,"[3]; 25° C., 60% RH, 3 months",Form A
same,TGA (%),"[3]; 25° C., 60% RH, 3 months",2.8%
same,Final Form,"[3]; 40° C., 75% RH, 1 month",Form A
same,TGA (%),"[3]; 40° C., 75% RH, 1 month",1.0%
same,Final Form,"[3]; 40° C., 75% RH, 3 months",Form A
same,TGA (%),"[3]; 40° C., 75% RH, 3 months",1.9%
same,Final Form,"[3]; 60° C., sealed, 1 month",Form A
same,TGA (%),"[3]; 60° C., sealed, 1 month",0.6%
same,Final Form,"[3]; 60° C., sealed, 3 months",Form A
same,TGA (%),"[3]; 60° C., sealed, 3 months",2.1%
same,Final Form,[3]; Initial,Form A
same,TGA (%),[3]; Initial,0.40%
same,Final Form,[3]; [6],Form A
same,TGA (%),[3]; [6],0.4%
same,solid form and particle morphology after storage,"[3]; one month and three months at 25° C./60% RH, 40° C./75% RH, and 60° C.",remained unchanged
same,degradation (chemical purity of solid sample) after storage,"[3]; solid sample of about 40 mg, storage for one month",no significant degradation was observed
same,HPLC Purity (area %),"[3]; 25° C., 60% RH, 1 month",99.83 area %
same,HPLC Purity (area %),"[3]; 25° C., 60% RH, 3 months",99.80 area %
same,HPLC Purity (area %),"[3]; 40° C., 75% RH, 1 month",99.81 area %
same,HPLC Purity (area %),"[3]; 40° C., 75% RH, 3 months",99.79 area %
same,HPLC Purity (area %),"[3]; 60° C., sealed, 1 month",99.85 area %
same,HPLC Purity (area %),"[3]; 60° C., sealed, 3 months",99.74 area %
same,HPLC Purity (area %),[3]; Initial,99.86 area %
same,solubility,"[4]; simulated gastric fluid (SGF), simulated gastric fluid, read-out: solubility in simulated gastric fluid (SGF)",> 114 mg/mL
same,solubility,"[4]; water with pH adjusted by NaOH and HCl, aqueous buffer, pH 7.08 (pH 5.13 after test), read-out: solubility in water solution with pH adjusted by NaOH and HCl",87.5 to 117 mg/mL
same,solubility,"[4]; water with pH adjusted by NaOH and HCl, aqueous buffer, pH 9.14 (pH 5.15 after test), read-out: solubility in water solution with pH adjusted by NaOH and HCl",83.5 to 111 mg/mL
same,Final Form,[5]; 20° C.,Form A
same,Final Form,[5]; 30° C.,Form A
same,form change during solubility testing,"[5]; XRPD, FIG. 9",No form change was observed
same,solubility at 6 h,[5]; 20° C.,125 mg/mL
same,solubility at 6 h,[5]; 30° C.,137 mg/mL
